“And” between values parts separate entries of the source, which are not always exact repeats. Equal entries are not always repeated.
Conditions: Crystal, Calculated from knudsen effusion weight loss

O=C(c1ccc[nH]1)C(Cl)(Cl)Cl [2-trichloroacetyl-1H-pyrrole]
Conditions | vapor or sublimation pressure
295.12 K | 0.000103 kPa and 9.92e-05 kPa and 0.000101 kPa
297.17 K | 0.000132 kPa and 0.000129 kPa
299.22 K | 0.000169 kPa and 0.000165 kPa and 0.000162 kPa
301.14 K | 0.000213 kPa and 0.000218 kPa
303.23 K | 0.000274 kPa and 0.000272 kPa and 0.000268 kPa
305.2 K | 0.000344 kPa and 0.000336 kPa and 0.000335 kPa
307.1 K | 0.000434 kPa and 0.00043 kPa and 0.000424 kPa
309.13 K | 0.000539 kPa and 0.000531 kPa and 0.000527 kPa
311.21 K | 0.000674 kPa and 0.000661 kPa and 0.000652 kPa
313.11 K | 0.000861 kPa and 0.000843 kPa and 0.000837 kPa
315.16 K | 0.00106 kPa and 0.001043 kPa and 0.001028 kPa
317.2 K | 0.001327 kPa and 0.001289 kPa and 0.00127 kPa

O=C(c1ccc[nH]1)C(F)(F)F [2-trifluoroacetylpyrrole]
Conditions | vapor or sublimation pressure
263.19 K | 0.000433 kPa and 0.000414 kPa and 0.000406 kPa
264.14 K | 0.00048 kPa and 0.000469 kPa
265.11 K | 0.000533 kPa and 0.000531 kPa
266.12 K | 0.000597 kPa and 0.00064 kPa and 0.000623 kPa
267.12 K | 0.000716 kPa and 0.00069 kPa and 0.00067 kPa
268.12 K | 0.000809 kPa and 0.000796 kPa and 0.000771 kPa
269.11 K | 0.0009 kPa and 0.000894 kPa and 0.000866 kPa
270.11 K | 0.001022 kPa and 0.000993 kPa
271.13 K | 0.001147 kPa and 0.00113 kPa and 0.001101 kPa
